How the values were obtained:
[1] = test system: subject diagnosed with Parkinson's disease; experiment: Case of a Parkinson's subject given Olivenol Plus capsules (Example 1); format: in vivo, human; details: orally administered L-dopa for over three months before the polyphenol treatment, one subject
Experimental: The subject was given an olive polyphenol composition orally, in the form of two Olivenol Plus® capsules administered three times per day. As each capsule contains 12 mg olive polyphenols, including about 5 mg hydroxytyrosol, the daily dose given to the subject was 72 mg olive polyphenols, including 30 mg hydroxytyrosol.

endothelial cell = experiment: Endothelial cell based assay (pro-/anti-oxidant effect)
Excerpt: Without wishing to be bound by theory, it may be postulated that the removal of hydroxytyrosol from its original matrix and natural environment can result in adverse effects, and that at least some of the naturally occurring associated polyphenols are necessary to include in a therapeutic hydroxytyrosol formulation.

iNOS production = experiment: Western blot on the mesencephalic region: iNOS; design: species or system male adult CD1 mice
Experimental: (§1) In vitro testing was then carried out on the mesencephalic region, with respect to iNOS production, IkB-α, NF-κB, Bax, and Bcl2. Western blot analyses and corresponding bar graphs are presented in FIG. 5 (iNOS production, optical density normalized to β-actin), FIG. 6 (IkB-α, also normalized to β-actin), FIG. 7 (NF-κB, optical density normalized to lamin A/C), FIG. 8 (Bax, normalized to β-actin), and FIG. 9 (Bcl2, normalized to β-actin). In each case, the effect of hydroxytyrosol is marked.

NF-κB = experiment: Western blot on the mesencephalic region: NF-κB; design: species or system male adult CD1 mice
Experimental: as §1

[2] = test system: rotenone-induced PD state; experiment: Pole test (body coordination and balance) in rotenone mouse model of PD; format: in vivo, male adult CD1 mice; details: hydroxytyrosol 10 mg/kg/day plus rotenone 5 mg/kg/day i.p., 28 days, relative to rotenone only
Bcl2 = experiment: Western blot on the mesencephalic region: Bcl2; design: species or system male adult CD1 mice
Experimental: as §1

[3] = even at high concentrations; Auñon-Calles et al. (2013); cited from earlier work
Bax = experiment: Western blot on the mesencephalic region: Bax; design: species or system male adult CD1 mice
Experimental: as §1

[4] = test system: cells from the mesencephalic region; experiment: Histology of cells from the mesencephalic region, rotenone mouse model; format: in vivo, male adult CD1 mice; details: hydroxytyrosol-treated relative to rotenone-only ("vehicle") group
IkB-α = experiment: Western blot on the mesencephalic region: IkB-α; design: species or system male adult CD1 mice
Experimental: as §1

Compound	improvement after treatment [1]	pro-oxidant / anti-oxidant effect (endothelial cell)	iNOS production, optical density normalized to β-actin, FIG. 5 (iNOS production)	NF-κB, optical density normalized to lamin A/C, FIG. 7 (NF-κB)	pole test time to turn (orientation time), FIG. 1B [2]	pole test total time (orientation and complete descent), FIG. 1A [2]	Bcl2, normalized to β-actin, FIG. 9 (Bcl2)	toxicity [3]	Bax, normalized to β-actin, FIG. 8 (Bax)	histologic injury score, FIG. 4 [4]	IkB-α, normalized to β-actin, FIG. 6 (IkB-α)
N[C@@H](Cc1ccc(O)c(O)c1)C(=O)O [L-dopa]	no noticeable improvement	–	–	–	–	–	–	–	–	–	–
OCCc1ccc(O)c(O)c1 [hydroxytyrosol, 4-(hydroxyethyl)-1,2-benzene diol]	–	pro-oxidant effect	marked	marked	significantly lowers	significantly lowers	marked	no toxicity has been detected	marked	significantly reduces	marked
